Data: patent US20260295053A1, “COMPOUNDS FOR DEGRADATION AND INHIBITION OF KRAS (G12D) PROTEIN” (Shenzhen Ionova Life Science Co., Ltd., priority 2023, published 2026)

How the values were obtained:
KRAS (G12D) = molecular target: T1, KRAS (G12D) (Homo sapiens, UniProt P01116, G12D); test: KRAS (G12D) cellular degradation assay in AsPC-1 cells; format: cell-based; conditions: 24 hours, antibody fluorescence (Odyssey CLX), DC50 half-maximal degradation concentration
T1 construct: in-cell western with KRAS G12D antibody after 24 h
T1 sequence (P01116 1-188 isoform P01116-2 G12D): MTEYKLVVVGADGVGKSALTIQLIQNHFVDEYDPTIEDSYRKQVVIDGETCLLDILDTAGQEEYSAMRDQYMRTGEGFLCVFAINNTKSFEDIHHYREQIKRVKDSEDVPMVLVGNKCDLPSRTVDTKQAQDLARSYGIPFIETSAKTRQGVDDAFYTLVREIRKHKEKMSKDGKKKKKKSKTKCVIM
In short: (§1)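 Read-outs were KRAS G12D immunofluorescence against β-actin after 24 h (DC50) and CellTiter Glo luminescence after 6 days (IC50). Compounds were titrated 1:3 from […] to 1.5 nM final on AsPC-1 cells at 37 °C, 5% CO2.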

AsPC-1 cells = test: AsPC-1 cell proliferation assay (CellTiter Glo); format: cell-based; conditions: 6 days
In short: as §1

Question: Which DC50 (KRAS (G12D)) does the source give for `CO[C@@H](C)COc1nc(N2C[C@@H]3C[C@H]2CN3)c2cc(C3CC3)c(-c3c(C)c(F)cc4[nH]ncc34)c(OCc3ccc(-c4cn([C@H](C(=O)N5C[C@H](O)C[C@H]5C(=O)N[C@H](C#Cc5cccc6nn(C)cc56)CO)C(C)C)nn4)cc3)c2n1` [Example 116, (2S,4R)-1-((2S)-2-(4-(4-(((4-((1S,4S)-2,5-diazabicyclo[2.2.1]heptan-2-yl)-6-cyclopropyl-7-(6-fluoro-5-methyl-1H-indazol-4-yl)-2-((S)-2-methoxypropoxy)quinazolin-8-yl)oxy)methyl)phenyl)-1H-1,2,3-triazol-1-yl)-3-methylbutanoyl)-4-hydroxy-N—((R)-1-hydroxy-4-(2-methyl-2H-indazol-4-yl)but-3-yn-2-yl)pyrrolidine-2-carboxamide] here?
Answer: Its DC50 is < 10 nM.

Question: And the IC50 (AsPC-1 cells; Homo sapiens, ASPC1, 144 h)?
Answer: Its IC50 is < 10 nM.

Question: Which DC50 (KRAS (G12D)) does the source give for `CCn1nccc1-c1ccc([C@@H](NC(=O)[C@@H]2C[C@@H](O)CN2C(=O)[C@H](C(C)C)n2cc(-c3ccc(COc4c(-c5c(C)c(F)cc6[nH]ncc56)c(C5CC5)cc5c(N6C[C@@H]7C[C@H]6CN7)nc(OCC(OC)C(F)F)nc45)cc3)nn2)[C@H](C)O)cc1` (stereo partly drawn) [Example 119, (2S,4R)-1-((2S)-2-(4-(4-(((4-((1S,4S)-2,5-diazabicyclo[2.2.1]heptan-2-yl)-6-cyclopropyl-2-(3,3-difluoro-2-methoxypropoxy)-7-(6-fluoro-5-methyl-1H-indazol-4-yl)quinazolin-8-yl)oxy)methyl)phenyl)-1H-1,2,3-triazol-1-yl)-3-methylbutanoyl)-N-((1R,2S)-1-(4-(1-ethyl-1H-pyrazol-5-yl)phenyl)-2-hydroxypropyl)-4-hydroxypyrrolidine-2-carboxamide] here?
Answer: Its DC50 is < 10 nM.

Question: And the IC50 (AsPC-1 cells; Homo sapiens, ASPC1, 144 h)?
Answer: The IC50 was < 10 nM.

Question: `CCn1nccc1-c1ccc([C@@H](NC(=O)[C@@H]2C[C@@H](O)CN2C(=O)[C@H](C(C)C)n2cc(-c3ccc(COc4c(-c5c(C)c(F)cc6[nH]ncc56)c(C5CC5)cc5c(N6C[C@@H]7C[C@H]6CN7)nc(O[C@H]6CC[C@H](OC)CC6)nc45)cc3)nn2)[C@H](C)O)cc1` [Example 121, (2S,4R)-1-((2S)-2-(4-(4-(((4-((1S,4S)-2,5-diazabicyclo[2.2.1]heptan-2-yl)-6-cyclopropyl-7-(6-fluoro-5-methyl-1H-indazol-4-yl)-2-(((1r,4S)-4-methoxycyclohexyl)oxy)quinazolin-8-yl)oxy)methyl)phenyl)-1H-1,2,3-triazol-1-yl)-3-methylbutanoyl)-N-((1R,2S)-1-(4-(1-ethyl-1H-pyrazol-5-yl)phenyl)-2-hydroxypropyl)-4-hydroxypyrrolidine-2-carboxamide] was tested. Which DC50 (KRAS (G12D)) did it give?
Answer: The DC50 was < 10 nM.

Question: And the IC50 (AsPC-1 cells; Homo sapiens, ASPC1, 144 h)?
Answer: Its IC50 is < 10 nM.

Question: For `CCn1nccc1-c1ccc([C@@H](NC(=O)[C@@H]2C[C@@H](O)CN2C(=O)[C@H](C(C)C)n2cc(-c3ccc(COc4c(-c5c(C)c(F)cc6[nH]ncc56)c(C5CC5)cc5c(N6C[C@@H]7C[C@H]6CN7)nc(OCC(OC)C(F)F)nc45)cc3)nn2)[C@H](C)O)cc1` (stereo partly drawn) [Example 122, (2S,4R)-1-((2S)-2-(4-(4-(((4-((1S,4S)-2,5-diazabicyclo[2.2.1]heptan-2-yl)-6-cyclopropyl-2-(3,3-difluoro-2-methoxypropoxy)-7-(6-fluoro-5-methyl-1H-indazol-4-yl)quinazolin-8-yl)oxy)methyl)phenyl)-1H-1,2,3-triazol-1-yl)-3-methylbutanoyl)-N-((1R,2S)-1-(4-(1-ethyl-1H-pyrazol-5-yl)phenyl)-2-hydroxypropyl)-4-hydroxypyrrolidine-2-carboxamide], which DC50 (KRAS (G12D)) is on record?
Answer: Its DC50 is < 10 nM.

Question: And the IC50 (AsPC-1 cells)?
Answer: Its IC50 is < 10 nM.

Question: For `CCn1nccc1-c1ccc([C@@H](NC(=O)[C@@H]2C[C@@H](O)CN2C(=O)[C@H](C(C)C)n2cc(-c3ccc(COc4c(-c5c(C)c(F)cc6[nH]ncc56)c(C5CC5)cc5c(N6C[C@@H]7C[C@H]6CN7)nc(OC6CCC(OC)CC6)nc45)cc3)nn2)[C@@H](C)O)cc1` (stereo partly drawn) [Example 127, (2S,4R)-1-((2S)-2-(4-(4-(((4-((1S,4S)-2,5-diazabicyclo[2.2.1]heptan-2-yl)-6-cyclopropyl-7-(6-fluoro-5-methyl-1H-indazol-4-yl)-2-((4-methoxycyclohexyl)oxy)quinazolin-8-yl)oxy)methyl)phenyl)-1H-1,2,3-triazol-1-yl)-3-methylbutanoyl)-N-((1R,2R)-1-(4-(1-ethyl-1H-pyrazol-5-yl)phenyl)-2-hydroxypropyl)-4-hydroxypyrrolidine-2-carboxamide], which DC50 (KRAS (G12D)) is on record?
Answer: Its DC50 is < 10 nM.

Question: And the IC50 (AsPC-1 cells; Homo sapiens, ASPC1, 144 h)?
Answer: The IC50 was < 10 nM.

Question: Which DC50 (KRAS (G12D)) does the source give for `CCn1nccc1-c1ccc([C@@H](NC(=O)[C@@H]2C[C@@H](O)CN2C(=O)[C@H](C(C)C)n2cc(-c3ccc(COc4c(-c5c(C)c(F)cc6[nH]ncc56)c(C5CCC5)cc5c(N6C[C@@H]7C[C@H]6CN7)nc(OC[C@H](C)OC)nc45)cc3)nn2)[C@@H](C)O)cc1` [Example 128, (2S,4R)-1-((2S)-2-(4-(4-(((4-((1S,4S)-2,5-diazabicyclo[2.2.1]heptan-2-yl)-6-cyclobutyl-7-(6-fluoro-5-methyl-1H-indazol-4-yl)-2-((S)-2-methoxypropoxy)quinazolin-8-yl)oxy)methyl)phenyl)-1H-1,2,3-triazol-1-yl)-3-methylbutanoyl)-N-((1R,2R)-1-(4-(1-ethyl-1H-pyrazol-5-yl)phenyl)-2-hydroxypropyl)-4-hydroxypyrrolidine-2-carboxamide] here?
Answer: Its DC50 is 10 to 100 nM.

Question: What about the IC50 (AsPC-1 cells; Homo sapiens, ASPC1, 144 h) of the same compound?
Answer: The IC50 was < 10 nM.

Question: `Cc1ncsc1-c1ccc([C@H](CO)NC(=O)[C@@H]2C[C@@H](O)CN2C(=O)[C@H](C(C)C)n2cc(-c3ccc(COc4c(-c5c(C)c(F)cc6[nH]ncc56)c(C5CC5)cc5c(N6C[C@@H]7C[C@H]6CN7)nc(OC6CC7(COC7)C6)nc45)cc3)nn2)cc1` [Example 129, (2S,4R)-1-((2S)-2-(4-(4-(((2-((2-oxaspiro[3.3]heptan-6-yl)oxy)-4-((1S,4S)-2,5-diazabicyclo[2.2.1]heptan-2-yl)-6-cyclopropyl-7-(6-fluoro-5-methyl-1H-indazol-4-yl)quinazolin-8-yl)oxy)methyl)phenyl)-1H-1,2,3-triazol-1-yl)-3-methylbutanoyl)-4-hydroxy-N—((R)-2-hydroxy-1-(4-(4-methylthiazol-5-yl)phenyl)ethyl)pyrrolidine-2-carboxamide] was tested. Which DC50 (KRAS (G12D)) did it give?
Answer: Its DC50 is < 10 nM.

Question: And the IC50 (AsPC-1 cells; Homo sapiens, ASPC1, 144 h)?
Answer: Its IC50 is < 10 nM.

Question: With `CCn1nccc1-c1ccc([C@@H](NC(=O)[C@@H]2C[C@@H](O)CN2C(=O)[C@H](C(C)C)n2cc(-c3ccc(COc4c(-c5c(C)c(F)cc6[nH]ncc56)c(C5CC5)cc5c(N6C[C@@H]7C[C@H]6CN7)nc(OC6CCC7(CC6)COC7)nc45)cc3)nn2)[C@@H](C)O)cc1` [Example 130, (2S,4R)-1-((2S)-2-(4-(4-(((2-((2-oxaspiro[3.5]nonan-7-yl)oxy)-4-((1S,4S)-2,5-diazabicyclo[2.2.1]heptan-2-yl)-6-cyclopropyl-7-(6-fluoro-5-methyl-1H-indazol-4-yl)quinazolin-8-yl)oxy)methyl)phenyl)-1H-1,2,3-triazol-1-yl)-3-methylbutanoyl)-N-((1R,2R)-1-(4-(1-ethyl-1H-pyrazol-5-yl)phenyl)-2-hydroxypropyl)-4-hydroxypyrrolidine-2-carboxamide] as the compound, how does the DC50 (KRAS (G12D)) read?
Answer: The DC50 was < 10 nM.

Question: And the IC50 (AsPC-1 cells; Homo sapiens, ASPC1, 144 h)?
Answer: The IC50 was < 10 nM.

Question: For `CCn1nccc1-c1ccc([C@@H](NC(=O)[C@@H]2C[C@@H](O)CN2C(=O)[C@H](C(C)C)n2cc(-c3ccc(COc4c(-c5c(C)c(F)cc6[nH]ncc56)c(C5CC5)cc5c(N6C[C@@H]7C[C@H]6CN7)nc(O[C@H]6C[C@H](OC)C6)nc45)cc3)nn2)[C@@H](C)O)cc1` [Example 131, (2S,4R)-1-((2S)-2-(4-(4-(((4-((1S,4S)-2,5-diazabicyclo[2.2.1]heptan-2-yl)-6-cyclopropyl-7-(6-fluoro-5-methyl-1H-indazol-4-yl)-2-((1r,3S)-3-methoxycyclobutoxy)quinazolin-8-yl)oxy)methyl)phenyl)-1H-1,2,3-triazol-1-yl)-3-methylbutanoyl)-N-((1R,2R)-1-(4-(1-ethyl-1H-pyrazol-5-yl)phenyl)-2-hydroxypropyl)-4-hydroxypyrrolidine-2-carboxamide], which DC50 (KRAS (G12D)) is on record?
Answer: Its DC50 is < 10 nM.

Question: And the IC50 (AsPC-1 cells; Homo sapiens, ASPC1, 144 h)?
Answer: Its IC50 is < 10 nM.

Question: What does the source list for `Cc1ncsc1-c1ccc([C@@H](NC(=O)[C@@H]2C[C@@H](O)CN2C(=O)[C@H](C(C)C)n2cc(-c3ccc(COc4c(-c5c(C)c(F)cc6[nH]ncc56)c(C5CC5)cc5c(N6C[C@@H]7C[C@H]6CN7)nc(OC6CC7COCC7C6)nc45)cc3)nn2)[C@H](C)O)cc1` (stereo partly drawn) [Example 132, (2S,4R)-1-((2S)-2-(4-(4-(((4-((1S,4S)-2,5-diazabicyclo[2.2.1]heptan-2-yl)-6-cyclopropyl-7-(6-fluoro-5-methyl-1H-indazol-4-yl)-2-((hexahydro-1H-cyclopenta[c]furan-5-yl)oxy)quinazolin-8-yl)oxy)methyl)phenyl)-1H-1,2,3-triazol-1-yl)-3-methylbutanoyl)-4-hydroxy-N-((1R,2S)-2-hydroxy-1-(4-(4-methylthiazol-5-yl)phenyl)propyl)pyrrolidine-2-carboxamide]?
Answer: DC50 (KRAS (G12D)): < 10 nM; IC50 (AsPC-1 cells; Homo sapiens, ASPC1, 144 h): < 10 nM

Question: What does the source list for `CO[C@@H](C)COc1nc(N2C[C@@H]3C[C@H]2CN3)c2cc(C3CC3)c(-c3c(C)c(F)cc4[nH]ncc34)c(OCc3ccc(-c4cn([C@H](C(=O)N5C[C@H](O)C[C@H]5C(=O)N[C@H](C#Cc5cccc6[nH]ncc56)CO)C(C)C)nn4)cc3)c2n1` [Example 133, (2S,4R)-1-((2S)-2-(4-(4-(((4-((1S,4S)-2,5-diazabicyclo[2.2.1]heptan-2-yl)-6-cyclopropyl-7-(6-fluoro-5-methyl-1H-indazol-4-yl)-2-((S)-2-methoxypropoxy)quinazolin-8-yl)oxy)methyl)phenyl)-1H-1,2,3-triazol-1-yl)-3-methylbutanoyl)-4-hydroxy-N—((R)-1-hydroxy-4-(1H-indazol-4-yl)but-3-yn-2-yl)pyrrolidine-2-carboxamide]?
Answer: DC50 (KRAS (G12D)): < 10 nM; IC50 (AsPC-1 cells; Homo sapiens, ASPC1, 144 h): < 10 nM
